The values that follow come from ChEMBL document CHEMBL6109128, “Copper-KRAS-COX2 Axis: A Therapeutic Vulnerability in Pancreatic Cancer” (J Med Chem, 2025).

Data set [1] relates to MIA PaCa-2. Description: Cytotoxicity against human MIA PaCa-2 cells by MTT assay. The format is functional, cell-based. (In general: Tetrazolium assays rely on reduction of a dye to a coloured formazan, in cell work by metabolically active cells.)
The nature of data set [2]: Metabolic stability in mouse liver microsome assessed as half life measured up to 60 mins by LC-MS/MS analysis. The format is ADME. The conditions noted are these: liver microsomes. On the technique in general: Liver microsomes are vesicles of endoplasmic reticulum, rich in cytochrome P450 enzymes.
A short description of data set [3]: Metabolic stability in human liver microsome assessed as half life measured up to 60 mins by LC-MS/MS analysis. The format is ADME. As to conditions: liver microsomes.
The subject of data set [4] is Panc02. Description: Cytotoxicity against mouse Panc02 cells by MTT assay. The format is functional, cell-based.
For data set [5], the system named is BXPC-3. Description: Cytotoxicity against human BXPC-3 cells by MTT assay. Format: functional, cell-based.
Data set [6] deals with PANC-1. Description: Cytotoxicity against human PANC-1 cells by MTT assay. The format is functional, cell-based.
Data set [7] deals with MIA PaCa-2. Description: Cytotoxicity against human MIA PaCa-2 cells assessed as cell death up to 0.1 uM incubated for 6 days in presence of NAC. The format is functional, cell-based. The conditions noted are these: time 6.0 day.
Data set [8] has as its system SU.86.86. Description: Cytotoxicity against human SU-86-86 cells by MTT assay. Format: functional, cell-based.
The nature of data set [9]: Cytotoxicity against mouse KPC2 cells by MTT assay. The format is functional, cell-based.
Data set [10] concerns HCT-116. Description: Cytotoxicity against human HCT-116 cells assessed as cell death up to 1 uM incubated for 6 days in presence of NAC. Format: functional, cell-based. The conditions noted are these: time 6.0 day.
Data set [11] in a line: Drug metabolism in mouse plasma assessed as 6-fluoro-8-isocyanatoquinoline metabolite formation by measuring Retention time measured after 1 hr by LC-MS/MS analysis. Format: ADME, cell-free.
Data set [12] in a line: Drug metabolism in mouse plasma assessed as 5-(2,5-diazabicyclo[2.2.1]heptan-2-yl)-N-(6-fluoroquinolin-8-yl)pyrazine-2-carboxamide metabolite formation by measuring Retention time measured after 1 hr by LC-MS/MS analysis. The format is ADME, cell-free.
Data set [13] in a line: Drug metabolism in mouse plasma assessed as 5-(5-((6-fluoroquinolin-8-yl)carbamoyl)pyrazin-2-yl)-2-methyl-2,5-diazabicyclo[2.2.1]heptane 2-oxide metabolite formation by measuring Retention time measured after 1 hr by LC-MS/MS analysis. The format is ADME, cell-free.
The nature of data set [14]: Drug metabolism in mouse plasma assessed as 5-(5-methyl-2,5-diazabicyclo[2.2.1]hept-3-en-2-yl)pyrazine-2-carbaldehyde metabolite formation by measuring Retention time measured after 1 hr by LC-MS/MS analysis. Format: ADME, cell-free.
Data set [15] can be described thus: Drug metabolism in mouse plasma assessed as 6-fluoroquinolin-8-amine metabolite formation by measuring Retention time measured after 1 hr by LC-MS/MS analysis. Format: ADME, cell-free.
Data set [16] can be described thus: Drug metabolism in mouse plasma assessed as retention time measured after 1 hr by LC-MS/MS analysis. Format: ADME, cell-free.
The nature of data set [17]: Toxicity in C57BL/6 mouse assessed as body weight loss at 20 to 40 mg/kg, ip administered for 28 days. Format: organism-based. The conditions noted are these: in vivo, 672 h, dose 20-40 mg/kg, time 28 day.

Each structure is given as a SMILES string. Activity calls are given as the source filed them. The rule behind the calls is not given here.

As to `O=C(Nc1cc(F)cc2cccnc12)c1cnc(N2CCNCC2)cn1`, the IC50 – broadly, the midpoint of a concentration-inhibition curve – in data set [1] stood at 400 nM. Further, the values for the half-life in [2] and in data set [3] were 1.8 min and over 60 min, respectively. `Cc1cc(C(=O)Nc2ccc(N3CCN(C)CC3)nc2)c2ncccc2c1`: in data set [1], the IC50 is 21500 nM. In the case of `O=C(Nc1cc(F)cc2cccnc12)c1cnc(N2CCOCC2)cn1`, the midpoint of inhibition in data set [1], the IC50, lay at 1000 nM. Compared with the last compound, the IC50 is about 22-fold lower.

As for `CS(=O)(=O)N1CCN(c2cnc(C(=O)Nc3cc(F)cc4cccnc34)cn2)CC1`, in data set [1], the midpoint of inhibition, the IC50, lay at 3300 nM. The compound `O=C(Nc1cc(F)cc2cccnc12)c1cnc(N2CCC(O)C2)cn1` (configuration not stated) showed an IC50 in data set [1] of 1000 nM.

On to `CN(NC(=O)CC(=O)NN(C)C(=S)c1ccccc1)C(=S)c1ccccc1` [ELESCLOMOL], for which the IC50 in data set [4] came out at 10 nM; in [5], 50 nM; in [1] it was 20 nM; in data set [6], 30 nM; in data set [8] it was 20 nM; in [9], 200 nM. For the same compound, in [7], the result was Active.

For `O=C(Nc1cc(F)cc2cccnc12)c1cnc(N2CCNC(C(F)(F)F)C2)cn1` (configuration not stated), in data set [1], the IC50 amounted to 800 nM. In other words, the sub-micromolar range. With `O=C(Nc1cc(F)cc2cccnc12)c1cnc(N2CCC(F)C2)cn1` (configuration not stated), the IC50 in [1] is 2800 nM. Turning to `CC1CNCCCN1c1cnc(C(=O)Nc2cc(F)cc3cccnc23)cn1` (configuration not stated), half-maximal inhibition in [1] (IC50) required 1100 nM. In turn, `O=C(Nc1cc(F)cc2cccnc12)c1cnc(N2CCn3c(nnc3C(F)(F)F)C2)cn1` returned an IC50 in data set [1] of 4100 nM. In the case of `N[C@@H]1CCCC12CCN(c1cnc(C(=O)Nc3cc(F)cc4cccnc34)cn1)CC2`, the IC50 in data set [1] came out at 1500 nM. Take `CCN(CC)C(=S)SSC(=S)N(CC)CC` [DISULFIRAM]: the IC50 in [4] was 100 nM; in data set [5], 300 nM; in data set [1], 100 nM; in data set [6], 100 nM; in data set [8] it was 300 nM; in data set [9], 200 nM. Besides, in data set [10], the outcome was Active. In the case of `N[C@H]1CN(c2cnc(C(=O)Nc3cc(F)cc4cccnc34)cn2)C[C@H]1F`, 300 nM corresponded to half-maximal inhibition in [1] (IC50). The half-life in data set [2] and in data set [3] was over 60 min throughout. For `O=C(Nc1cc(F)cc2cccnc12)c1cnc(N2CCC(F)(F)CC2)cn1`, the IC50 in data set [1] stood at 3700 nM.

In data set [1], `CN1CNC(=O)C12CCN(c1cnc(C(=O)Nc3cc(F)cc4cccnc34)cn1)CC2` displayed an IC50 of 2900 nM. Regarding `CCN(CC)C1CCN(c2cnc(C(=O)Nc3cc(F)cc4cccnc34)cn2)CC1`, half-maximal inhibition in data set [1] (IC50) was put at 500 nM. Against the preceding compound, the IC50 is about 5.8-fold lower. In data set [1], `O=C(Nc1cc(F)cc2cccnc12)c1cnc(N2C[C@@H](O)CC2=O)cn1` had an IC50 of 4700 nM. On the same count and under the same terms, with `O=C(Nc1cc(F)cc2cccnc12)c1cnc(N2CC3CC2CO3)cn1` (configuration not stated) the figure was 900 nM; with `O=C(Nc1cc(F)cc2cccnc12)c1cnc(N2CCn3cnnc3C2)cn1`, over 30000 nM; with `O=C(Nc1cc(F)cc2cccnc12)c1cnc(N2CC3CC2CN3)cn1` (configuration not stated), 9400 nM. In data set [1], `CN1CCN(c2cnc(C(=O)Nc3cc(F)cc4cccnc34)cn2)CC1` yielded an IC50 of 700 nM. Against the preceding compound, the IC50 is about 13-fold lower. Compound `O=C(Nc1cccc2ccccc12)c1cnc(N2CCNCC2)cn1` yielded an IC50 in data set [1] of over 30000 nM. Take `CN1CCN(c2cnc(C(=O)Nc3cccc4ccccc34)cn2)CC1`: the IC50 in data set [1] is over 30000 nM. Consider `N[C@@H]1CN(c2cnc(C(=O)Nc3cc(F)cc4cccnc34)cn2)CC12COC2`, for which the half-inhibitory concentration (IC50) in [1] was 11600 nM. Take `CN1C2CCC1CN(c1cnc(C(=O)Nc3cc(F)cc4cccnc34)cn1)C2`: the 50% inhibitory concentration (IC50) in data set [1] came out at 400 nM. Besides, the half-life (usually how long it takes for the measured level to halve) in data set [2] was 13.5 min; in data set [3], over 60 min. As for `CN1CC2CC1CN2c1cnc(C(=O)Nc2cc(F)cc3cccnc23)cn1` (configuration not stated), the Retention_time turned out to be 6.23 min in [11]; 6.22 min in [12]; 6.44 min in data set [13]; 6.19 min in data set [14]; 6.23 min in data set [15]; 6.22 min in data set [16]. In [1], this compound yielded an IC50 of 100 nM. Further, the half-life in data set [2] is 10.5 min; in data set [3], over 60 min.

`O=C(Nc1cc(F)cc2cccnc12)c1cnc(N2CC3C(C2)C3(F)F)cn1` (configuration not stated) displayed an IC50 in data set [1] of 5400 nM. This lies in the single-digit micromolar range.

`Cc1cc(NC(=O)c2cnc(N3CCN(C(=O)C4CC4)CC3)cn2)c2ncccc2c1` displayed an IC50 in data set [1] of 1200 nM. The compound `O=C(Nc1cc(F)cc2cccnc12)c1cnc(N2CCC(O)(C(F)(F)F)CC2)cn1` registered an IC50 in data set [1] of 2100 nM. `O=C(Nc1cc(F)cc2cccnc12)c1cnc(N2CCC(N3CCCC3)CC2)cn1` yielded an IC50 in [1] of 500 nM. In turn, `C[C@@H]1CN(c2cnc(C(=O)Nc3cc(F)cc4cccnc34)cn2)CCN1` came in with an IC50 in [1] of 500 nM. Consider `CC1(C)CN(c2cnc(C(=O)Nc3cc(F)cc4cccnc34)cn2)CCN1`, for which the IC50 in data set [1] was determined as 300 nM. The same measure, in the same setting: with `C[C@@H]1CNCCN1c1cnc(C(=O)Nc2cc(F)cc3cccnc23)cn1` the figure was 400 nM; with `Cc1cc(NC(=O)c2ccc(N3CCN(C)CC3)cc2)c2ncccc2c1`, 25800 nM. As to `C[C@@H]1CN(c2cnc(C(=O)Nc3cc(F)cc4cccnc34)cn2)C[C@H](C)N1`, half-maximal inhibition in data set [1] (IC50) was put at 300 nM. Against the preceding compound, the IC50 is about 86-fold lower. In turn, `CN(C)C/C=C/C(=O)N1CCN(c2cnc(C(=O)Nc3cc(F)cc4cccnc34)cn2)CC1` returned an IC50 in data set [1] of 4400 nM. With `Cc1cc(NCc2cnc(N3CCNCC3)cn2)c2ncccc2c1`, in [1], half-maximal inhibition (IC50) required 17600 nM. Compared with the last compound, the IC50 is about 4-fold higher. Regarding `Cc1cc(NC(=O)c2cnc(N3C[C@@H]4[C@@H](N)[C@@H]4C3)cn2)c2ncccc2c1`, the IC50 in data set [1] was found to be 500 nM. In data set [2], the half-life was over 60 min.

`N[C@@H]1CCN(c2cnc(C(=O)Nc3cc(F)cc4cccnc34)cn2)C[C@@H]1F` gave an IC50 in [1] of 1100 nM. In turn, `Cc1cc(NC(=O)c2cnc(N3CCNCC3)cn2)c2ncccc2c1` came in with an IC50 in [1] of 900 nM. Moreover, in [2], the half-life stood at 4 min. Take `O=C(Nc1cc(F)cc2cccnc12)c1cnc(N2CC3CC2CS3(=O)=O)cn1` (configuration not stated): the IC50 in data set [1] came to 1400 nM. That is a single-digit micromolar value. For the compound `Cc1cc(NC(=O)c2cnc(N3CCN(S(C)(=O)=O)CC3)cn2)c2ncccc2c1`, it took 1000 nM to reach half-maximal inhibition in [1] (IC50). For the compound `O=C(Nc1cc(F)cc2cccnc12)c1cnc(N2CCN3CCCC3C2)cn1` (configuration not stated), in data set [1], inhibition was half-maximal at 1700 nM (IC50). Take `NC1CC2(CCN(c3cnc(C(=O)Nc4cc(F)cc5cccnc45)cn3)CC2)C1`: half-maximal inhibition in data set [1] (IC50) required 3000 nM.

As to `C=CC(=O)N1CCN(c2cnc(C(=O)Nc3cc(C)cc4cccnc34)cn2)CC1`, it took 900 nM to reach half-maximal inhibition in data set [1] (IC50). Besides, the half-life in data set [2] was found to be 3 min.

In turn, `O=C(Nc1cc(F)cc2cccnc12)c1cnc(N2CCNC3(CC3)C2)cn1` yielded an IC50 in data set [1] of 800 nM. In the case of `NC1CCCN(c2cnc(C(=O)Nc3cc(F)cc4cccnc34)cn2)C1` (configuration not stated), in [1], the IC50 was 1800 nM. This IC50 lies about 2.2-fold higher than the previous one.

In the case of `CC1(N)CN(c2cnc(C(=O)Nc3cc(F)cc4cccnc34)cn2)C1`, the 50% inhibitory concentration (IC50) in [1] worked out at 2100 nM. This IC50 and that of the compound before are within 1.5-fold of each other. In [1], `NC1CC2(C1)CN(c1cnc(C(=O)Nc3cc(F)cc4cccnc34)cn1)C2` gave an IC50 of 5500 nM. Same read-out and setting: under `Cc1cc(NC(=O)CNCCN2CCN(C)CC2)c2ncccc2c1` stands over 30000 nM. In the case of `O=C(Nc1cc(F)cc2cccnc12)c1cnc(N2CCNC(F)C2)cn1` (configuration not stated), in [1], the IC50 came to 3400 nM. Take `Cc1cc(NC(=O)c2cnc(N3CCC4(CC3)CO[C@@H](C)[C@H]4N)cn2)c2ncccc2c1`: the IC50 in [1] is 1000 nM. Further, in data set [2], the half-life worked out at 11.7 min. Compound `NC1C2CCC1CN(c1cnc(C(=O)Nc3cc(F)cc4cccnc34)cn1)C2` (configuration not stated) gave an IC50 in data set [1] of 800 nM. The half-life in data set [2] and in data set [3] was over 60 min each time. Besides, in data set [17], the Activity entry is “Non-toxic”. Take `NC1CCC2(CC1)CN(c1cnc(C(=O)Nc3cc(F)cc4cccnc34)cn1)C2`: inhibition in [1] was half-maximal at 4700 nM (IC50).
